Measurements taken from US20260374766A1, “METHODS FOR TREATING CANCER” (Antares Therapeutics, Inc., priority 2022, published 2026).
Read-outs that look alike come from different tables or passages of the source.

Experiments:
[1] = molecular target: T1, p53 Y220C mutant protein (amino acid residues 94-293) (Homo sapiens, UniProt P04637, Y220C); assay: Surface Plasmon Resonance (SPR) assay, Kd_kinetic; type: binding; conditions: SPR; p53 Y220C; read-out: SPR P53 Y220C KD kinetic
T1 construct: p53 Y220C mutant protein (amino acid residues 94-293)
Protocol: Surface Plasmon Resonance (SPR) Assay Protocol
SPR experiments were performed on a Biacore 8K instrument. […] The running buffer contained 50 mM Tris, pH 7.5, 100 mM NaCl, 1 mM DTT, 0.01% Brij35, 0.05% Tween-20 and 1% DMSO. The assay temperature was maintained at 16 or 20 °C and data were fit into the 1:1 binding model using the Biacore Insight Evaluation software.

p53 Y220C = p53 Y220C (Homo sapiens, UniProt P04637, Y220C); assay: Luciferase Reporter Assay (Luc), p53 response element, NClH1299 cells with inducible p53 Y220C; type: cell-based; conditions: 6 hour; for AC50: read-out: Luc P53 Y220C AC50
Protocol: Luciferase Reporter Assay Protocol
The cells were then used for p53 reporter assay. 5,000 cells were seeded in each well of 384 plate and cultured in 0.5 ug/mL doxycycline (D3072; Sigma) containing medium for 24 hours before compound treatment. After 6 hour of compound treatment, equal volume of One-Glo reagent (E6110; Promega) was added to each well and the plate was incubated for 5 minutes with shaking at room temperature. The luciferase activity was immediately measured with PheraStar microplate reader.

NUGC3 p53 Y220C = assay: Cell Proliferation Assay (CellTiter-Glo, CTG), NUGC3 p53 Y220C; type: cell-based; conditions: Homo sapiens, NUGC-3, 120 h, 5 days
Protocol: (§1) Inducible p53 Y220C and R273H constructs (Tet-One inducible expression system; Takara) were stably expressed in NClH1299 cells by lentiviral transduction. NUGC3, A549, BxPC3, T3M4, HuH7, HCC2935, MFE296, NClH1299, NClH1299-inducible p53 Y220C, and NClH1299-inducible p53 R273H cell lines were used for cell proliferation assay. 250-500 cells were seeded in each well of 384 plate and then compounds were dispensed into each well using Echo or Tecan. After 5 days of incubation, equal volume of CellTiter-Glo reagent (G7570; Promega) was added into each well and the plate was incubated at room temperature for 10 minutes with shaking. The luminescent signal was measured by PheraStar microplate reader and IC50 was calculated.

H1299 p53 Y220C = assay: Cell Proliferation Assay (CellTiter-Glo, CTG), H1299 p53 Y220C (NClH1299-inducible p53 Y220C); type: cell-based; conditions: Homo sapiens, NCI-H1299, 120 h, 5 days
Protocol: as §1

H1299 p53 R273H = assay: Cell Proliferation Assay (CellTiter-Glo, CTG), H1299 p53 R273H (NClH1299-inducible p53 R273H); type: cell-based; conditions: Homo sapiens, NCI-H1299, 120 h, 5 days
Protocol: as §1

[2] = AC50, luciferase reporter, NClH1299 inducible p53 Y220C
[3] = Emax, luciferase reporter, NClH1299 inducible p53 Y220C
[4] = NClH1299-inducible p53 Y220C cells, CellTiter-Glo
[5] = NClH1299-inducible p53 R273H cells, CellTiter-Glo
[6] = AC50, NClH1299 cells with inducible p53 Y220C
[7] = Emax, NClH1299 cells with inducible p53 Y220C, 10 uM tool compound as positive control
[8] = NClH1299-inducible p53 Y220C cells
[9] = NClH1299-inducible p53 R273H cells

T1 sequence (P04637 94-293, stated change not applied): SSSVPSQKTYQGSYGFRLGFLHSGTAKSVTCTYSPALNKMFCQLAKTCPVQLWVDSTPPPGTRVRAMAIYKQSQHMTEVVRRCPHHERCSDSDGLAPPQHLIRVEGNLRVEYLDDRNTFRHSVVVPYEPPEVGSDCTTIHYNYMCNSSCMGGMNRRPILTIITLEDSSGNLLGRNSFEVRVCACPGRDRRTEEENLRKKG

SMILES	Kd [1] [nM]	AC50 (p53 Y220C; [2]) [nM]	Emax (p53 Y220C; [3]) [%]	IC50 (NUGC3 p53 Y220C; NUGC3 cells, CellTiter-Glo) [nM]	IC50 (H1299 p53 Y220C; [4]) [nM]	IC50 (H1299 p53 R273H; [5]) [nM]	further results
C[C@H](O)[C@@H](C)NC(=O)c1ccc(NCC#Cc2cc3c(N[C@@H]4CCN(C)C[C@@H]4F)cccn3c2SC(F)(F)F)cc1 [Example 376]	< 10	< 750	> 90	< 750	< 750	≥ 10000	–
COc1cc(C(=O)N2CC(C)(O)C2)ccc1NCC#Cc1cc2c(N[C@@H]3CCNC[C@@H]3F)cccn2c1SC(F)(F)F [Example 406, 1-(4-{[3-(8-{[(3S,4R)-3-fluoropiperidin-4-yl]amino}-3-[(trifluoromethyl)sulfanyl]indolizin-2-yl)prop-2-yn-1-yl]amino}-3-methoxybenzoyl)-3-methylazetidin-3-ol]	< 10	< 750	80 to 90	< 750	< 750	5000 to 8000	–
COc1cc(C(=O)NCC2(O)CC2)ccc1NCC#Cc1cc2c(N[C@@H]3CCN(C)C[C@@H]3F)cccn2c1SC(F)(F)F [Example 419, 4-{[3-(8-{[(3S,4R)-3-fluoro-1-methylpiperidin-4-yl]amino}-3-[(trifluoromethyl)sulfanyl]indolizin-2-yl)prop-2-yn-1-yl]amino}-N-[(1-hydroxycyclopropyl)methyl]-3-methoxybenzamide]	< 10	< 750	> 90	< 750	< 750	5000 to 8000	–
CNC(=O)c1ccc(NCC#Cc2cc3c(N[C@@H]4CCN(C)C[C@@H]4F)cccn3c2SC(F)(F)F)c(OC2COC2)c1 [Example 405]	< 10	< 750	> 90	< 750	< 750	≥ 10000	–
CNC(=O)c1ccc(NCC#Cc2cc3c(N[C@@H]4CNC[C@@H]4F)cccn3c2SC(F)(F)F)c(OC)c1 [Example 392]	< 10	< 750	80 to 90	< 750	< 750	≥ 10000	–
COc1ncc(C(N)=O)cc1NCC#Cc1nn2c(N[C@@H]3CCN(C)C[C@@H]3F)cccc2c1SC(F)(F)F [Example 276]	< 10	< 750	80 to 90	< 750	< 750	< 5000	–
CNC(=O)c1ccc(OC)c(NCC#Cc2cc3c(N[C@@H]4CNC[C@@H]4F)cccn3c2SC(F)(F)F)c1 [Example 478]	< 10	–	–	–	–	–	AC50 (p53 Y220C; [6]): < 750 nM; Emax (p53 Y220C; [7]): > 90%; IC50 (NUGC3 p53 Y220C; NUGC3 cells): < 750 nM; IC50 (H1299 p53 Y220C; [8]): < 750 nM; IC50 (H1299 p53 R273H; [9]): ≥ 10000 nM
CNC(=O)c1ccc(NCC#Cc2nc3c(N[C@@H]4CCS(=O)(=O)C4)cccn3c2SC(F)(F)F)c(OC)c1 [Example 230]	10 to 100	1500 to 3000	80 to 90	1500 to 3000	1500 to 3000	≥ 10000	–
CNC(=O)c1ccc(NCC#Cc2cn3c(N[C@@H]4CCNC[C@@H]4F)cccc3c2SC(F)(F)F)c(OC)c1 [Example 434]	< 10	< 750	80 to 90	< 750	< 750	5000 to 8000	–
COc1cc(C(N)=O)ccc1NCC#Cc1nn2c(N[C@@H]3CCN(C)C[C@@H]3F)cccc2c1SC(F)F [Example 286]	< 10	< 750	> 90	< 750	< 750	≥ 10000	–
COc1cc(S(C)(=O)=O)ccc1NCC#Cc1nn2c(N[C@@H]3CCN(C)C[C@@H]3F)cccc2c1SC(F)(F)F [Example 363]	< 10	< 750	80 to 90	< 750	< 750	≥ 10000	–
CNC(=O)c1ccc(OC)c(NCC#Cc2cc3c(N[C@@H]4CCN(C)C[C@@H]4F)cccn3c2CC(F)(F)F)c1 [Example 509]	< 10	–	–	–	–	–	AC50 (p53 Y220C; [6]): < 750 nM; IC50 (NUGC3 p53 Y220C; NUGC3 cells): < 750 nM; IC50 (H1299 p53 Y220C; [8]): < 750 nM
CNC(=O)c1ccnc(NCC#Cc2nc3c(N[C@@H]4CCN(C)C[C@@H]4F)cccn3c2SC(F)(F)F)c1 [Example 150]	–	–	–	–	–	–	Emax (p53 Y220C; luciferase reporter, NClH1299 inducible p53 Y220C, 10 uM tool compound as positive control): < 70%; AC50 (p53 Y220C; luciferase reporter, NClH1299 inducible p53 Y220C): > 3000 nM; IC50 (NUGC3 p53 Y220C; CellTiter-Glo, NUGC3 p53 Y220C): > 3000 nM; IC50 (H1299 p53 Y220C; CellTiter-Glo, H1299 p53 Y220C): > 3000 nM; IC50 (H1299 p53 R273H; CellTiter-Glo, H1299 p53 R273H): ≥ 10000 nM
COc1cc(P(C)(C)=O)ncc1NCC#Cc1cc2c(N[C@@H]3CCN(C)C[C@@H]3F)cccn2c1SC(F)(F)F [Example 439, 2-(3-{[6-(dimethylphosphoryl)-4-methoxypyridin-3-yl]amino}prop-1-yn-1-yl)-N-[(3S,4R)-3-fluoro-1-methylpiperidin-4-yl]-3-[(trifluoromethyl)sulfanyl]indolizin-8-amine]	–	< 750	> 90	< 750	< 750	≥ 10000	–
CNC(=O)c1ccc(NCC#Cc2cc3c(N[C@@H]4CCN(C)C[C@@H]4F)cccn3c2CC(F)(F)F)c(OC)c1 [Example 510]	< 10	–	–	–	–	–	AC50 (p53 Y220C; [6]): < 750 nM; IC50 (NUGC3 p53 Y220C; NUGC3 cells): < 750 nM; IC50 (H1299 p53 Y220C; [8]): < 750 nM
CN1CC[C@@H](Nc2cccn3c(SC(F)(F)F)c(C#CCNc4cc(C(=O)NCC(C)(C)O)ccc4OC4COC4)cc23)[C@@H](F)C1 [Example 459, 3-{[3-(8-{[(3S,4R)-3-fluoro-1-methylpiperidin-4-yl]amino}-3-[(trifluoromethyl)sulfanyl]indolizin-2-yl)prop-2-yn-1-yl]amino}-N-(2-hydroxy-2-methylpropyl)-4-(oxetan-3-yloxy)benzamide]	–	–	–	–	–	–	AC50 (p53 Y220C; [6]): < 750 nM; Emax (p53 Y220C; [7]): > 90%; IC50 (NUGC3 p53 Y220C; NUGC3 cells): < 750 nM; IC50 (H1299 p53 Y220C; [8]): < 750 nM; IC50 (H1299 p53 R273H; [9]): ≥ 10000 nM
COc1ccc(C(=O)NC[C@H](O)CO)cc1NCC#Cc1cc2c(N[C@@H]3CCN(C)C[C@@H]3F)cccn2c1SC(F)(F)F [Example 425]	–	< 750	> 90	< 750	< 750	≥ 10000	–
CNC(=O)c1ccc(NCC#Cc2nn3c(N[C@@H]4CCN(C)C[C@@H]4F)cccc3c2SC(F)F)c(OC)c1 [Example 366]	–	–	70 to 80	< 750	< 750	≥ 10000	–
CNS(=O)(=O)c1ccc(NCC#Cc2cc3c(N[C@@H]4CCN(C)C[C@@H]4F)cccn3c2SC(F)(F)F)c(OC)c1 [Example 360]	–	> 3000	< 70	> 3000	> 3000	5000 to 8000	–
CNC(=O)c1ccc(OC)c(NCC#Cc2cc3c(N[C@@H]4CCN(C[C@@H](C)O)C[C@@H]4F)nccn3c2SC(F)(F)F)c1 [Example 401]	–	< 750	> 90	< 750	< 750	8000 to 10000	–
COc1cc(S(N)(=O)=O)ccc1NCC#Cc1cc2c(N[C@@H]3CCN(C)C[C@@H]3F)cccn2c1SC(F)(F)F [Example 362]	–	> 3000	70 to 80	> 3000	> 3000	8000 to 10000	–
CNC(=O)c1ccc(NCC#Cc2nc3c(N[C@H]4C[C@@H]5COC[C@@H](N5)[C@H]4F)cccn3c2SC(F)(F)F)c(OC)c1 [Example 279]	–	–	70 to 80	> 3000	> 3000	≥ 10000	–
CNC(=O)c1ccc(NCC#Cc2nc3c(N[C@@H]4C[C@H]5COC[C@H](N5)[C@@H]4F)cccn3c2SC(F)(F)F)c(OC)c1 (relative stereo) [Example 251, rel-4-{[3-(8-{[(1R,5R,6S,7S)-6-fluoro-3-oxa-9-azabicyclo [3.3.1]nonan-7-yl]amino}-3-[(trifluoromethyl)sulfanyl]imidazo[1,2-a]pyridin-2-yl)prop-2-yn-1-yl]amino}-3-methoxy-N-methylbenzamide]	–	–	80 to 90	1500 to 3000	1500 to 3000	≥ 10000	–
